Measurements reported in ChEMBL document CHEMBL4387747, “Discovery of naphthacemycins as a novel class of PARP1 inhibitors” (Bioorg Med Chem Lett, 2019).
Active and inactive are the calls of the source. The calls are words filed in the database; no cut-off is given here.

Key:
MCF7 = test: cells; conditions: Homo sapiens
MDA-MB-231 = test: cells; conditions: Homo sapiens
MDA-MB-436 [1] = system: MDA-MB-436
[2] = target: T1, Poly [ADP-ribose] polymerase 1 (Homo sapiens, UniProt P09874); test: Inhibition of recombinant human full length C-terminal His-tagged PARP1 expressed in Sf9 insect cells preincubated for 15 mins followed by NAD+ addition and measured after 40 mins by fluorescence based assay
[3] = target: T1, Poly [ADP-ribose] polymerase 1; test: Inhibition of PARP1 in human MDA-MB-231 cells assessed as decrease in PAR expression level incubated for 3 hrs by Western blot analysis; assay type: cell-based
[4] = target: T1, Poly [ADP-ribose] polymerase 1; test: Inhibition of PARP1 in MMS treated human MDA-MB-436 cells harboring BRCA1 mutation assessed as increase in PARP1 trapping in chromatin-bound fraction incubated for 4 hrs by Western blot analysis; assay type: cell-based
[5] = target: T1, Poly [ADP-ribose] polymerase 1; test: Inhibition of PARP1 in human MDA-MB-231 cells assessed as increase in gammaH2AX expression level incubated for 24 hrs by Western blot analysis; assay type: cell-based
[6] = target: T1, Poly [ADP-ribose] polymerase 1; test: Inhibition of PARP1 in human MDA-MB-436 cells harboring BRCA1 mutation assessed as increase in gammaH2AX expression level incubated for 24 hrs by Western blot analysis; assay type: cell-based
[7] = target: T1, Poly [ADP-ribose] polymerase 1; test: Inhibition of PARP1 in human MDA-MB-436 cells harboring BRCA1 mutation assessed as decrease in PAR expression level incubated for 3 hrs by Western blot analysis; assay type: cell-based
MDA-MB-436 [8] = test: Effect on whole cell PARP1 protein levels in MMS treated human MDA-MB-436 cells harboring BRCA1 mutation at 5 to 45 uM incubated for 4 hrs by Western blot analysis; assay type: functional, cell-based

T1 sequence (P09874 whole entry): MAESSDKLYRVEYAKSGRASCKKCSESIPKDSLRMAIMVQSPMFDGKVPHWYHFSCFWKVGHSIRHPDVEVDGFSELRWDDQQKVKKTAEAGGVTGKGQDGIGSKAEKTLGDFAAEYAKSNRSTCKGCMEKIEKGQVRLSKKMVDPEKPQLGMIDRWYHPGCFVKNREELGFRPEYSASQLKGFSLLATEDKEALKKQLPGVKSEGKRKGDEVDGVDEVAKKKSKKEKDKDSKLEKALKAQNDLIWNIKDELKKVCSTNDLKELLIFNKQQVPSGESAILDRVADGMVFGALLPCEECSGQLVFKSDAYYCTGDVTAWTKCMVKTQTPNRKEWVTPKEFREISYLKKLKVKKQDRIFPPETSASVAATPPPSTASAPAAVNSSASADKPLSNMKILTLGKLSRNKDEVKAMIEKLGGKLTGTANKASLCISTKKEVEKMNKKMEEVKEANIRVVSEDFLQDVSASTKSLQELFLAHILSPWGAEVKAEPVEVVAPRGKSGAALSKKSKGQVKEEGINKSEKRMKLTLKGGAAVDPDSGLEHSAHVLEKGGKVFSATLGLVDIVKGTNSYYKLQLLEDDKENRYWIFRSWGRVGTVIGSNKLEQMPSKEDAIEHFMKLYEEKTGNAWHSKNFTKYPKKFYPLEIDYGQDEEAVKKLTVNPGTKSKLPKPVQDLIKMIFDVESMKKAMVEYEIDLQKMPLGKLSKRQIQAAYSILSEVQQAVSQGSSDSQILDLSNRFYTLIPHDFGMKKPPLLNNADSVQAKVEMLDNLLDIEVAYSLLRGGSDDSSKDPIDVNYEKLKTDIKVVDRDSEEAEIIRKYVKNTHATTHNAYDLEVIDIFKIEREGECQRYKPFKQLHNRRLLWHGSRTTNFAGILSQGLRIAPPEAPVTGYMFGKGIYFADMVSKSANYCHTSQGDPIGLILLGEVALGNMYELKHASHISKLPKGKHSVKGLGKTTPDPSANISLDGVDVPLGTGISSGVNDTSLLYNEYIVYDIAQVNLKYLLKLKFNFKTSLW

IC50 (MCF7) [µM] | IC50 (MDA-MB-231) [µM] | IC50 (MDA-MB-436 [1]) [µM] | IC50 [2] [µM] | inhibition [3] | inhibition [4] | inhibition [5] | inhibition [6] | inhibition [7] | SMILES | Activity (MDA-MB-436 [8])
28.8 | > 40 | 4.95 | 1.82 |  |  |  |  |  | COc1c(Cl)c(O)c(Cl)c(C)c1-c1cc(O)c(Cl)c2cc3c(c(O)c12)C(=O)c1c(O)c(Cl)c(O)c(Cl)c1C3(C)C | 
> 40 | > 40 | 10.5 | 4.86 |  |  |  |  |  | COc1cc(O)c(Cl)c(C)c1-c1cc(O)cc2cc3c(c(O)c12)C(=O)c1c(O)cc(O)cc1C3(C)C | 
> 40 | > 40 | 0.22 |  |  |  |  |  |  | O=C(c1cc(Cc2n[nH]c(=O)c3ccccc23)ccc1F)N1CCN(C(=O)C2CC2)CC1 [OLAPARIB] | 
> 40 | > 40 | 20.2 | 15.4 |  |  |  |  |  | COc1cc(O)cc(C)c1-c1cc(O)cc2cc3c(c(O)c12)C(=O)c1c(cc(O)c(Cl)c1O)C3(C)C | 
> 40 | > 40 | 12.9 | 4.59 |  |  |  |  |  | COc1cc(O)c(Cl)c(C)c1-c1cc(O)c(Br)c2cc3c(c(O)c12)C(=O)c1c(O)cc(O)cc1C3(C)C | 
> 40 | > 40 | 8.61 | 6.56 |  |  |  |  |  | COc1cc(O)c(Cl)c(C)c1-c1cc(O)c(Cl)c2cc3c(c(O)c12)C(=O)c1c(cc(O)c(Cl)c1O)C3(C)C | 
> 40 | > 40 | 9.27 | 5.88 |  |  |  |  |  | COc1cc(O)c(Cl)c(C)c1-c1cc(O)c(Cl)c2cc3c(c(O)c12)C(=O)c1c(O)c(Cl)c(O)c(Cl)c1C3(C)C | 
16.5 | 18.8 | 9.2 | 8.84 |  |  |  |  |  | COc1cc(O)c(Cl)c(C)c1-c1cc(O)cc2cc3c(c(O)c12)C(=O)c1c(cc(O)c(Cl)c1O)C3(C)C | 
> 40 | > 40 | 3.82 | 0.95 | Dose-dependent effect | Dose-dependent effect | Dose-dependent effect | Dose-dependent effect | Dose-dependent effect | COc1cc(O)c(Cl)c(C)c1-c1cc(O)cc2cc3c(c(O)c12)C(=O)c1c(O)c(Cl)c(O)c(Cl)c1C3(C)C | inactive
